Values quoted from earlier work, collected in patent publication US7193101B2, “Esters with antimicrobial, bioresistant and fungal resistant properties” (TPAT IP, priority 2004, dated 2007).

How the values were obtained:
[1] = test system: various strains of both gram positive and gram negative bacteria
nematodes = settings: prior art U.S. Pat. No. 5,013,762
[2] = prior art U.S. Pat. No. 5,866,511

| Compound | average minimum inhibitory concentration ([1]; average over gram positive and gram negative strains) | effective concentration against bacteria ([1]; various strains of gram positive and gram negative bacteria) | antifungal activity (fungi) | effectiveness for the treatment of nematodes in the soil (nematodes) | effectiveness as a general biocide [2] |
| --- | --- | --- | --- | --- | --- |
| O=[N+]([O-])C(Br)(CO)CO [BNPD, 2-bromo-2-nitro-propane-1,3-diol] | around 25 ppm | 1–50 ppm | antifungal |  |  |
| O=[N+]([O-])CBr [bromonitromethane] |  |  |  | effective | effective |
